Structures can show the parent of a compound that is named as a salt. Marks after values point to notes of the source that are not given here.
Columns and labels:
[1] = tested on: conditioned fear stressed animal model (abnormal evacuation); assay: Conditioned fear stress (CFS)-induced abnormal evacuation, wet feces weight; type: in vivo, rat; details: oral administration 1 hour before CFS loading; 30 minutes CFS; linear regression, n=12
Description: (§1) Male Sprague-Dawley rats (6 weeks of age, CLEA Japan) were used. The rats which passed 1 week or more after their receipt were divided into groups of 12 animals per group in such a manner that their average values and standard deviations of body weight became almost the same. The electric shock conditions were set in accordance with the results of preliminary examinations. That is, the rats were put into an electric shock device (17×17×39 cm, CB 2000 type, O'Hara) having an electrode set in the floor, and after 3 seconds of warning sound, their conditioning was carried out by applying an electric current of 2 mA at the maximum for 5 seconds per once per minute, a total of 15 times, and irradiating light at the time of the electric shock using 3 electric bulbs of 40 w. The control group was put into the electric shock device by the same protocol, but without applying the electric shock. From 18 to 24 hours thereafter, each drug to be tested was orally administered to each animal by force at a dose of 5 mL/kg, they were again put into the electric shock device 1 hour thereafter, and then a conditioned fear stress (CFS) loading was carried out by applying 3 seconds of warning sound and subsequent 5 seconds of light irradiation for 30 minutes.
The number of evacuations was recorded after 2, 4, 6, 8, 10, 15, 20, 25 and 30 minutes of the commencement of the CFS loading, and wet weights of feces were measured by recovering the feces at the time of the completion of the measurement. In addition, the feces were dried at 70° C. for 22 hours and then their dry weights were measured to calculate the moisture content. In this connection, the evacuations just after putting them into the measuring device were excluded from the measured values of the number of evacuations and feces weights.

[2] = tested on: conditioned fear stressed animal model (freezing behavior); assay: CFS-induced freezing behavior; type: in vivo, rat; details: oral; for influence upon CFS-induced freezing behavior: 30 minutes observation after CFS loading, all of the doses tested
Description: as §1
Regarding the measurement of freezing behavior (freezing), a case of not moving at all during 30 seconds other than the movement accompanied by breathing was evaluated as the freezing behavior. The evaluation times were set to 0, 1, 3, 5, 7, 9, 12, 13, 14, 17, 18, 19, 22, 23, 24, 27, 28 and 29 minutes after the CFS loading, and the measurement was carried out at intervals of 30 seconds per minute. The ratio (%) of showing the freezing behavior by each animal was calculated in 3 plots of from 0 to 9 minutes (Block 1), from 10 to 19 minutes (Block 2) and from 20 to 29 minutes (Block 3) after the loading.

[3] = tested on: conditioned fear stressed animal model (proximal large intestine transport); assay: Proximal large intestine transport ability by marker method after CFS loading; type: in vivo, rat; details: 30 minutes after CFS loading
Experimental: (§2) Male Sprague-Dawley rats (6 to 7 weeks of age, CLEA Japan) were used. The rats which passed about 1 week after their receipt were used in the test. The electric shock conditions were set in accordance with Example 1. That is, the rats were put into an electric shock device (17×17×39 cm, CB 2000 type, O'Hara) having an electrode set in the floor, and after 3 seconds of warning sound, their conditioning was carried out by applying an electric current of 2.5 mA for 5 seconds per minute per once, a total of 15 times, and irradiating light at the time of the electric shock using 3 electric bulbs of 40 w. The normal group was put into the electric shock device by the same protocol, but without applying the electric shock. From 20 to 24 hours thereafter, each drug to be tested was orally administered to each animal by force at a dose of 5 mL/kg, they were again put into the electric shock device 1 hour thereafter, and then a conditioned fear stress (CFS) loading was carried out by applying 3 seconds of warning sound and subsequent 5 seconds of light irradiation for 30 minutes.
Measurement of proximal large intestine transport ability by a marker method was carried out by modifying the method of Kadowaki et al. (Journal of Pharmacology and Experimental Therapeutics, 1993, vol. 266, p. 74-80). That is, abdominal part of each rat was subjected to median incision (about 1 cm) under pentobarbital (50 mg/kg ip) anesthesia, and the ileocecal junction was extracted. A large intestinal part of about 1 cm from the connecting part was extracted from the neck by inserting canula (SP 50). The animals were individually reared for 5 days until the test, under conditions of free ingestion and free drinking. A Carmine Red solution (0.2 mL of 0.5% methyl cellulose solution containing 3 g of Carmine Red and 5 g of acacia) was injected trough the canula, CFS was loaded for 30 minutes by the aforementioned method, and then the animals were sacrificed by a decapitation device. By quickly carrying out median incision, large intestine starting part-anus part was extracted, and the whole length and marker shifting distance were measured using the canula insertion part as the starting point. The large intestine transport ability (%) was calculated as (marker shifting distance)÷(whole length)×100.

[4] = tested on: conditioned fear stressed animal model (distal large intestine transport); assay: Distal large intestine transport ability by beads discharge method after CFS loading; type: in vivo, rat; details: control group 13.70, normal group 0.38
Experimental: as §2, with “test by 12 animals per group.” for “test.”
Measurement of large intestine transport ability by a beads discharge method was carried out by modifying the method of Negri et al. (British Journal of Pharmacology, 1999, no. 128, p. 1554-60). That is, under light ether anesthesia, silicon beads (3 mm in diameter) were inserted in a length of 3 cm into the rectum side from the anus part using a silicon rod. After waking, the silicon rod was immediately removed to carry out CFS loading. The CFS loading starting time and silicon beads discharging time were recorded, and the measurement finishing time was set to 90 minutes in CFS group and 8 hours in normal group after the starting of the measurement. The distal large intestine transport ability (mm/min) was calculated as 30 mm÷required beads discharge time (min).

[5] = tested on: conditioned fear stressed animal model; details: cited from earlier work; for freezing behavior: reported in the literature (Non-patent References 4-7)

Structure (SMILES)	ED50 value of the controlling ratio of wet feces weights increased by CFS loading [1] [mg/kg]	influence upon CFS-induced freezing behavior [2]	freezing behavior [5]	also measured
Cc1[nH]cnc1CN1CCc2c(c3ccccc3n2C)C1=O [Alosetron hydrochloride, alosetron hydrochloride]	0.078	did not exert influence	–	proximal large intestine transport rate increased by the CFS loading ([3]; 0.3 mg/kg oral): lowered; Distal large intestine transport ability ([4]; dose 0.3 mg/kg oral): 5.04* mm/min
Cc1nccn1C[C@H]1CCc2c(c3cccc4c3n2CCC4)C1=O [Cilansetron hydrochloride, cilansetron hydrochloride]	0.094	did not exert influence	–	proximal large intestine transport rate increased by the CFS loading ([3]; 0.3 mg/kg oral): lowered; Distal large intestine transport ability ([4]; dose 0.3 mg/kg oral): 5.06** mm/min
CN(C)C(=O)C(CCN1CCC(O)(c2ccc(Cl)cc2)CC1)(c1ccccc1)c1ccccc1 [Loperamide hydrochloride, loperamide hydrochloride]	9.000	–	–	freezing behavior-expressing time of 20 to 29 minutes after CFS loading (Block 3) ([2]; action significant at a dose of 30 mg/kg): dose-dependently prolonged; proximal large intestine transport rate increased by the CFS loading ([3]; 10 mg/kg oral): lowered; Distal large intestine transport ability ([4]; dose 10 mg/kg oral): 3.64** mm/min
Cn1cc(C(=O)[C@@H]2CCc3nc[nH]c3C2)c2ccccc21 [Ramosetron hydrochloride, ramosetron hydrochloride]	0.012	did not exert influence	–	proximal large intestine transport rate increased by the CFS loading ([3]; 0.1 mg/kg oral): lowered; Distal large intestine transport ability ([4]; dose 0.1 mg/kg oral): 4.93** mm/min
CN1C(=O)CN=C(c2ccccc2)c2cc(Cl)ccc21 [diazepam]	–	–	suppressed	–
CNCCC(Oc1ccc(C(F)(F)F)cc1)c1ccccc1 (centres unmarked) [fluoxetine]	–	–	suppressed	bowel movement ([5]; reported in the literature (Non-patent References 5-7)): suppressed
Cc1ncc2n1-c1ccc(Cl)cc1C(c1ccccc1F)=NC2 [midazolam]	–	–	suppressed	–

From US20080010691A1, “Method of Screening Therapeutic Agent for Irritable Bowel Syndrome” (priority 2005, published 2008)
